Assay results as given in article PMC3627577 (2013).
Starred links: 1 amine or outer side, 2 acyl side, 3 side chain; linkers in the order of their positions; H or OH if unused. Positions of bridges follow the written chain, without caps; N, C: chain ends. Non-standard residues stand in square brackets, D forms with d. Residues, ends and D or L forms follow the SMILES beside them. Chains are numbered I, II in the order given. Actinocin(9to1) = Cc1c2oc3c(C)ccc(C(=O)[*:1])c3nc-2c(C(=O)[*:2])c(N)c1=O; NMeV = CN[C@H](C(=O)O)C(C)C; Sar = CNCC(=O)O

How the values were obtained:
[1] = test system: (CGG)16 (DNA, repeat) CGGCGGCGGCGGCGGCGGCGGCGGCGGCGGCGGCGGCGGCGGCGGCGG; test: UV melting, 260 nm; conditions: 50 mM NaCl; 20 mM Tris-HCl pH 7.3; 12 μM compound, 1 μM DNA
[2] = test system: GC1 hairpin (DNA, hairpin) AAAGCTTTTGTAAAGCTTT; test: SPR kinetics, 1:1 Langmuir; conditions: 50 mM NaCl; 20 mM Tris-HCl pH 7.3; ka/kd
[3] = test system: GC2 hairpin (DNA, hairpin) ATGCGCATTGTATGCGCAT; test: SPR kinetics, bivalent ligand model; conditions: 50 mM NaCl; 20 mM Tris-HCl pH 7.3; ka/kd; site 1 of 2
[4] = test system: GG2 hairpin (DNA, hairpin) ATGCGGCATTGTATGCGGCAT; test: SPR kinetics, bivalent ligand model; conditions: 50 mM NaCl; 20 mM Tris-HCl pH 7.3; ka/kd; site 1 of 2
[5] = test system: AT2 hairpin (DNA, hairpin) ATGCATGCATTGTATGCATGCAT; test: SPR kinetics, bivalent ligand model; conditions: 50 mM NaCl; 20 mM Tris-HCl pH 7.3; ka/kd; site 1 of 2

ΔTm [1] [°C]	Ka1 [2] [M⁻¹]	Ka1 [3] [M⁻¹]	Ka1 [4] [M⁻¹]	Ka1 [5] [M⁻¹]	Compound
10.1					COc1cccc2c1C(=O)c1c(O)c3c(c(O)c1C2=O)C[C@@](O)(C(C)=O)C[C@@H]3O[C@H]1C[C@H](N)[C@H](O)[C@H](C)O1
11.8					Cc1c2ccncc2c(C)c2c1[nH]c1ccccc12
23.4	2.29e+06	6.07e+06	3.08e+06	1.287e+07	Cc1c2oc3c(C)ccc(C(=O)N[C@@H]4C(=O)N[C@H](C(C)C)C(=O)N5CCC[C@H]5C(=O)N(C)CC(=O)N(C)[C@@H](C(C)C)C(=O)O[C@@H]4C)c3nc-2c(C(=O)N[C@@H]2C(=O)N[C@H](C(C)C)C(=O)N3CCC[C@H]3C(=O)N(C)CC(=O)N(C)[C@@H](C(C)C)C(=O)O[C@@H]2C)c(N)c1=O (I: T[dV]P[Sar][NMeV] / II: T[dV]P[Sar][NMeV]; ester I:1-I:C, II:1-II:C; linker I:N-II:N via Actinocin(9to1))
